Reference: patent US20050075403A1, “Ambroxol for the treatment of inflammation in the pharynx” (priority 2003, published 2005)

How the values were obtained:
TNF = details: in vitro; cited from earlier work
[1] = tested on: tumor necrosis factor α (TNF-α); details: human mononuclear cells stimulated with lipopolysaccharide; cited from earlier work
IL-1 = details: human mononuclear cells stimulated with lipopolysaccharide; cited from earlier work
IL-10 / IL-12 balance = details: in vitro; cited from earlier work
interferon-γ (INF-γ) = details: bronchoalveolar lavage cells and peripheral blood mononuclear cells stimulated with phythemagglutine; cited from earlier work
[2] = tested on: patients suffering from oro-pharyngeal catarrh accompanied by pain (sore throat); assay: Example 1: placebo-controlled double-blind trial, two days of treatment with ambroxol lozenges; assay type: in vivo, human; details: up to six lozenges containing 20 mg ambroxol hydrochloride per day, vs placebo
Source text: The activity of ambroxol according to the invention is intended to be illustrated by the following three examples of clinical trials which investigate: 1) the […] of ambroxol lozenges by measurement of the redness symptom and 2) the efficacy and tolerability of ambroxol lozenges relative to placebo in relieving the symptoms of sore throat of at least moderately severe intensity in patients suffering from oro-pharyngeal catarrh accompanied by pain.
The first study was a multi-centre, prospective, placebo-controlled, randomized, double-blind trial involving two days of treatment with up to six lozenges containing 20 mg ambroxol hydrochloride per day.
109 patients were treated with ambroxol and 109 patients with placebo.

interleukin-2 (IL-2) = details: bronchoalveolar lavage cells and peripheral blood mononuclear cells stimulated with phythemagglutine; cited from earlier work

Compound	release of inflammatory TNF (TNF)	production of tumor necrosis factor α (TNF-α) [1]	production of IL-1 (IL-1)	inflammatory responses, local balance of IL-10 and IL-12 (IL-10 / IL-12 balance)	secretion of interferon-γ (INF-γ) (interferon-γ (INF-γ))	pain (primary endpoint) [2]	secretion of interleukin-2 (IL-2) (interleukin-2 (IL-2))
CC(C(=O)O)c1cccc(C(=O)c2ccccc2)c1 (stereo not shown) [ketoprofen]	induce the release	–	–	–	–	–	–
Nc1c(Br)cc(Br)cc1CN[C@H]1CC[C@H](O)CC1 [ambroxol, trans-4-(2-amino-3,5-dibromobenzylamino)-cyclohexanole]	–	inhibit the production	inhibit the production	enhance inflammatory responses	decrease the secretion	reduced statistically significantly	decrease the secretion
